Read-outs that look alike come from different tables or passages of the source.
Target: T1, human Nav1.8/b3 (Homo sapiens, UniProt Q9Y5Y9)
T1 construct: expressed in transfected cells; host or cells: CHO
Test: Compound Profiling Human NaV1.8/β3 Cell Line—SyncroPatch384PE Assay (automated patch clamp, stably transfected CHO cells)
Format: cell-based
Settings: Nav1.8/b3 CHO cells

[1] = P1 (IC50, resting state block), P1 measurement, resting state block, holding potential −120 mV, first set of compounds
[2] = P2 (IC50, inactivated state block), P2 measurement, inactivated state block, inactivation step −35 mV 10 sec, first set of compounds
[3] = P1 (IC50, resting state block), P1 measurement, resting state block, holding potential −120 mV, third set of compounds
[4] = P2 (IC50, inactivated state block), P2 measurement, inactivated state block, inactivation step −35 mV 10 sec, third set of compounds
[5] = P1 (IC50, resting state block), P1 measurement, resting state block, holding potential −120 mV, second set of compounds
[6] = P2 (IC50, inactivated state block), P2 measurement, inactivated state block, inactivation step −35 mV 10 sec, second set of compounds
[7] = P1 (IC50, resting state block), P1 measurement, resting state block, holding potential −120 mV, fourth set of compounds
[8] = P2 (IC50, inactivated state block), P2 measurement, inactivated state block, inactivation step −35 mV 10 sec, fourth set of compounds

T1 sequence (Q9Y5Y9 whole entry): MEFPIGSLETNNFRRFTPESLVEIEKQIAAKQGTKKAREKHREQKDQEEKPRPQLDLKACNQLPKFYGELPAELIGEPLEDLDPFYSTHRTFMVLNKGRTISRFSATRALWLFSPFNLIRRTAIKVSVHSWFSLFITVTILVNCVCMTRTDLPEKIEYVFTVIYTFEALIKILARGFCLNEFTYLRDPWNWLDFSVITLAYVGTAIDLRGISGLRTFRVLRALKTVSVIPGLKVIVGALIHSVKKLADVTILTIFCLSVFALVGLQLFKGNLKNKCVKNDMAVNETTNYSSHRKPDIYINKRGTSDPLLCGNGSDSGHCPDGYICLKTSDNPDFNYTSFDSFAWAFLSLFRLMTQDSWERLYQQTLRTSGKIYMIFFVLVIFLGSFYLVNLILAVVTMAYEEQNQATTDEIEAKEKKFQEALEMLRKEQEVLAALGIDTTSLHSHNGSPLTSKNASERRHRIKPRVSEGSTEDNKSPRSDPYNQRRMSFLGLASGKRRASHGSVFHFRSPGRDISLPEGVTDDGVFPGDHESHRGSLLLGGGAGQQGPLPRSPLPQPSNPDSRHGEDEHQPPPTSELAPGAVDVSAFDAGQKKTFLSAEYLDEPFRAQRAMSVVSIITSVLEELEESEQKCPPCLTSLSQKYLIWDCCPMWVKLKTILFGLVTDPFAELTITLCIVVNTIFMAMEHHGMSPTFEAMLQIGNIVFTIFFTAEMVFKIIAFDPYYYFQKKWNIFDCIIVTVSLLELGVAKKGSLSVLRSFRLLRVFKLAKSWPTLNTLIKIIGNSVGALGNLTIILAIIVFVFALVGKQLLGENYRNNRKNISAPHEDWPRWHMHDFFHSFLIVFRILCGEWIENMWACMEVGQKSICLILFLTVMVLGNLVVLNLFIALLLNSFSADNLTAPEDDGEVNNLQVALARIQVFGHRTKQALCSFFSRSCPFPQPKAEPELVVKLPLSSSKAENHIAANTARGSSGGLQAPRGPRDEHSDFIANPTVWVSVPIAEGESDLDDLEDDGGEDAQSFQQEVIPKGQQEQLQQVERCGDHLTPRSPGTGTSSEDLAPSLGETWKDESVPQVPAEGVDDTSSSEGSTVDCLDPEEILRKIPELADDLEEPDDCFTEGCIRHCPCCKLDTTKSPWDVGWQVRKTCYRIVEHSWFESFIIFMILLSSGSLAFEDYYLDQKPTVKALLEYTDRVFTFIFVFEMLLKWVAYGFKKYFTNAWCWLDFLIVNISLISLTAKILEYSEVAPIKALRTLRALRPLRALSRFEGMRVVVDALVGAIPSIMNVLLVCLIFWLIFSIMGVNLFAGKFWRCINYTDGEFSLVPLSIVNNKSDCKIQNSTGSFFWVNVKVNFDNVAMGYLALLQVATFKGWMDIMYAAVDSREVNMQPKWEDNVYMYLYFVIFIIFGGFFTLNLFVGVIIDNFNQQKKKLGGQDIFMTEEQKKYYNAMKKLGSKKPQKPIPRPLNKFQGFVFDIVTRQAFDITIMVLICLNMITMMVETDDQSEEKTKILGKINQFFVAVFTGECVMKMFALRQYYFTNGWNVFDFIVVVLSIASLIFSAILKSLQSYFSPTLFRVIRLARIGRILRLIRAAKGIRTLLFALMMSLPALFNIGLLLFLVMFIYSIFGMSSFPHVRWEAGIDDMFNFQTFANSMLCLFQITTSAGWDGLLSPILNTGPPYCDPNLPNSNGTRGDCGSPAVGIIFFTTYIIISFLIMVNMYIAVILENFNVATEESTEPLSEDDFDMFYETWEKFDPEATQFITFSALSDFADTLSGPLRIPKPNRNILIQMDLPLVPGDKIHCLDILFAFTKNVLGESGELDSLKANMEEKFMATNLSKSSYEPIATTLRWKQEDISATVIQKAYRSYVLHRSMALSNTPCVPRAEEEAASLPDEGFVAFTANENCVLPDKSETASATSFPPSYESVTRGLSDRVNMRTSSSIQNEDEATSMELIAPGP
T1 sequence (Q9NY72 23-215 partner): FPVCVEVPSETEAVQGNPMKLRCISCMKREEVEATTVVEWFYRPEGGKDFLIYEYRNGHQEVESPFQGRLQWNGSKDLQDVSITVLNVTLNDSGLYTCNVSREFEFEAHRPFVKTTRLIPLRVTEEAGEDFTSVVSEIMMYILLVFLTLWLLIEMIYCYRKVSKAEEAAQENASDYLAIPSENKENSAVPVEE

`Cc1nc(F)ccc1Oc1cc(C2CC2)c(C(F)(F)F)c(C)c1C(=O)Nc1cccc([S@](C)(=N)=O)c1` [Example 9A, (R)-4-cyclopropyl-6-((6-fluoro-2-methylpyridin-3-yl)oxy)-2-methyl-N-(3-(S-methylsulfonimidoyl)phenyl)-3-(trifluoromethyl)benzamide] gave an IC50 (P1 measurement, resting state block, holding potential −120 mV, first set of compounds, read-out: P1 (IC50, resting state block)) of less than 5 nM and an IC50 (P2 measurement, inactivated state block, inactivation step −35 mV 10 sec, first set of compounds, read-out: P2 (IC50, inactivated state block)) of less than 5 nM.
`Cc1nc(F)ccc1Oc1cc(C(F)(F)F)c(Cl)cc1C(=O)Nc1cccc(C(N)=O)c1` [Example 73A] was tested, and the IC50 [1] was less than 5 nM and the IC50 [2] was less than 5 nM.
`COc1cc(C#N)ccc1Oc1ncc(C(F)(F)F)c(C)c1C(=O)Nc1cccc([S@](C)(=N)=O)c1` [Example 5C, (R)-2-(4-cyano-2-methoxyphenoxy)-4-methyl-N-(3-(S-methylsulfonimidoyl)phenyl)-5-(trifluoromethyl)nicotinamide] was tested, and the IC50 [3] was less than 5 nM and the IC50 [4] was less than 5 nM.
`COc1cc(C#N)ccc1Oc1ncc(-c2cn(C)nc2C)c(C)c1C(=O)Nc1cccc([S@](C)(=N)=O)c1` [Example 27C, (R)-2-(4-cyano-2-methoxyphenoxy)-5-(1,3-dimethyl-1H-pyrazol-4-yl)-4-methyl-N-(3-(S-methylsulfonimidoyl)phenyl)nicotinamide] showed an IC50 [3] of 50 to 100 nM and an IC50 [4] of 50 to 100 nM.
Work on `Cc1nc(F)ccc1Oc1cc(C(F)(F)F)c(Cl)cc1C(=O)Nc1cccc([S@@](C)(=O)=NC(=O)[C@@H](C)N)c1` [Example 5B, N-(3-((R)—N-(D-alanyl)-S-methylsulfonimidoyl)phenyl)-5-chloro-2-((6-fluoro-2-methylpyridin-3-yl)oxy)-4-(trifluoromethyl)benzamide] yielded an IC50 [5] of less than 5 nM and an IC50 [6] of less than 5 nM.
`Cc1nc(F)ccc1Oc1cc(C(F)(F)F)c(Cl)c(C)c1C(=O)Nc1ccnc(C(N)=O)c1` [Example 62A] was tested, and the IC50 [1] was less than 5 nM and the IC50 [2] was less than 5 nM.
`Cc1nc(F)ccc1Oc1ncc(C(F)(F)F)c(C)c1C(=O)Nc1cccc([S@@](C)(=O)=NC(=O)[C@@H]2CCCO2)c1` [Example 7D, 2-((6-fluoro-2-methylpyridin-3-yl)oxy)-4-methyl-N-(3-((R)—S-methyl-N—((S)-tetrahydrofuran-2-carbonyl)sulfonimidoyl)phenyl)-5-(trifluoromethyl)nicotinamide] gave an IC50 [7] of less than 5 nM and an IC50 [8] of less than 5 nM.
Work on `COc1c(Oc2cc(C(F)(F)F)nnc2C(=O)Nc2cccc([S+](C)[O-])c2)ccc(F)c1F` (stereo not shown) [Example 30C, 4-(3,4-difluoro-2-methoxyphenoxy)-N-(3-(methylsulfinyl)phenyl)-6-(trifluoromethyl)pyridazine-3-carboxamide] yielded an IC50 [3] greater than 200 nM and an IC50 [4] greater than 200 nM.
Compound `COc1c(Oc2cc(C(F)(F)F)nnc2C(=O)Nc2cccc(S(C)(=O)=O)c2)ccc(F)c1F` [Example 32C, 4-(3,4-difluoro-2-methoxyphenoxy)-N-(3-(methylsulfonyl)phenyl)-6-(trifluoromethyl)pyridazine-3-carboxamide] has an IC50 [3] of 50 to 100 nM and an IC50 [4] of 50 to 100 nM.
With `Cc1ccc(Oc2ncc(C(F)(F)F)c(C)c2C(=O)Nc2cccc([S@@](C)(=N)=O)c2)c(F)n1` [Example 121C] the IC50 [3] was 50 to 100 nM and the IC50 [4] was 50 to 100 nM.
Compound `Cc1nc(F)ccc1Oc1ncc(C(F)(F)F)c(C)c1C(=O)Nc1cccc([S@@](C)(=O)=NC(=O)[C@H](C)O)c1` [Example 13D, 2-((6-fluoro-2-methylpyridin-3-yl)oxy)-N-(3-((R)—N—((S)-2-hydroxypropanoyl)-S-methylsulfonimidoyl)phenyl)-4-methyl-5-(trifluoromethyl)nicotinamide] has an IC50 [7] of less than 5 nM and an IC50 [8] of less than 5 nM.
`Cc1nc(F)ccc1Oc1c(C2CC2)ncc(F)c1C(=O)Nc1cccc([S@](C)(=N)=O)c1` [Example 37C, (R)-2-cyclopropyl-5-fluoro-3-((6-fluoro-2-methylpyridin-3-yl)oxy)-N-(3-(S-methylsulfonimidoyl)phenyl)isonicotinamide] was tested, and the IC50 (P1 measurement, resting state block, holding potential −120 mV, third set of compounds, read-out: P1 (IC50, resting state block)) was greater than 200 nM and the IC50 (P2 measurement, inactivated state block, inactivation step −35 mV 10 sec, third set of compounds, read-out: P2 (IC50, inactivated state block)) was greater than 200 nM.
With `Cc1nc(F)ccc1Oc1ncc(C(F)(F)F)c(C)c1C(=O)Nc1ccc(F)c([S@@](C)(=N)=O)c1` (single isomer, unassigned) [Example 14C] the IC50 [3] was 5 to 50 nM and the IC50 [4] was 5 to 50 nM.
`Cc1nc(F)ccc1Oc1ccc(C(F)(F)F)c(F)c1C(=O)Nc1cccc([S@@](C)(=O)=NC(=O)[C@@H](C)O)c1` [Example 19B, 2-fluoro-6-((6-fluoro-2-methylpyridin-3-yl)oxy)-N-(3-((R)—N—((R)-2-hydroxypropanoyl)-S-methylsulfonimidoyl)phenyl)-3-(trifluoromethyl)benzamide] showed an IC50 [5] of less than 5 nM and an IC50 [6] of less than 5 nM.
For `Cc1nc(F)ccc1Oc1cc(C(F)(F)F)cc(F)c1C(=O)Nc1ccc(C(N)=O)cc1` [Example 36A], the IC50 [1] was 5 to 50 nM and the IC50 [2] was 5 to 50 nM.
`Cc1nc(F)ccc1Oc1nc2ccccc2cc1C(=O)Nc1ccnc([S@](C)(=N)=O)c1` [Example 93C] gave an IC50 [3] of 100 to 200 nM and an IC50 [4] of 100 to 200 nM.
Work on `Cc1nc(F)ccc1Oc1cc(C(F)(F)F)c(Cl)c(C)c1C(=O)NC12CC(C(N)=O)(C1)C2` [Example 53A] yielded an IC50 [1] greater than 200 nM and an IC50 [2] greater than 200 nM.
With `Cc1nc(F)ccc1Oc1cc(C(F)(F)F)c(Cl)cc1C(=O)Nc1ccc([S@](C)(=N)=O)cc1` [Example 49A] the IC50 [1] was 50 to 100 nM and the IC50 [2] was 50 to 100 nM.
`Cc1nc(F)ccc1Oc1ncc(C(F)(F)F)c(C)c1C(=O)Nc1cccc([S@@](C)(=O)=NC(=O)CN)c1` [Example 2D, (R)-2-((6-fluoro-2-methylpyridin-3-yl)oxy)-N-(3-(N-glycyl-S-methylsulfonimidoyl)phenyl)-4-methyl-5-(trifluoromethyl)nicotinamide] showed an IC50 [7] of less than 5 nM and an IC50 [8] of less than 5 nM.
`Cc1nc(F)ccc1Oc1cc(C(F)(F)F)c(Cl)c(C)c1C(=O)Nc1ccnc([S@@](C)(=N)=O)c1` [Example 60A] gave an IC50 [1] of less than 5 nM and an IC50 [2] of less than 5 nM.
In the case of `Cc1nc(F)ccc1Oc1nc(C2CC2)c(C(F)(F)F)c(C)c1C(=O)Nc1cccc([S@](C)(=N)=O)c1` [Example 108C], the IC50 (read-out: P1 (IC50, resting state block), P1 measurement, resting state block, holding potential −120 mV, third set of compounds) is reported as less than 5 nM and the IC50 (read-out: P2 (IC50, inactivated state block), P2 measurement, inactivated state block, inactivation step −35 mV 10 sec, third set of compounds) is reported as less than 5 nM.
`COc1cc(C#N)ccc1Oc1ncc(Br)c(C)c1C(=O)Nc1cccc([S@](C)(=N)=O)c1` [Example 24C, (R)-5-bromo-2-(4-cyano-2-methoxyphenoxy)-4-methyl-N-(3-(S-methylsulfonimidoyl)phenyl)nicotinamide] was tested, and the IC50 [3] was less than 5 nM and the IC50 [4] was less than 5 nM.
`Cc1nc(F)ccc1Oc1ncc(C(F)(F)F)c(C)c1C(=O)Nc1cccc([S@@](C)(=O)=NC(=O)[C@@H]2C[C@@H](O)CN2)c1` [Example 17D, 2-((6-fluoro-2-methylpyridin-3-yl)oxy)-N-(3-((R)—N-((2S,4R)-4-hydroxypyrrolidine-2-carbonyl)-S-methylsulfonimidoyl)phenyl)-4-methyl-5-(trifluoromethyl)nicotinamide] gave an IC50 [7] of less than 5 nM and an IC50 [8] of less than 5 nM.
Compound `Cc1nc(F)ccc1Oc1ncc(C(F)(F)F)c(C)c1C(=O)Nc1cccc([S@@](C)(=O)=NC(=O)C2COC2)c1` [Example 6D, (R)-2-((6-fluoro-2-methylpyridin-3-yl)oxy)-4-methyl-N-(3-(S-methyl-N-(oxetane-3-carbonyl)sulfonimidoyl)phenyl)-5-(trifluoromethyl)nicotinamide] has an IC50 [7] of less than 5 nM and an IC50 [8] of less than 5 nM.
`CNCC(=O)N=[S@](C)(=O)c1cccc(NC(=O)c2ccc(C(F)(F)F)cc2Oc2ccc(F)nc2C)c1` [Example 10B, (R)-2-((6-fluoro-2-methylpyridin-3-yl)oxy)-N-(3-(S-methyl-N-(methylglycyl)sulfonimidoyl)phenyl)-4-(trifluoromethyl)benzamide] gave an IC50 [5] of 5 to 50 nM and an IC50 [6] of 5 to 50 nM.
`Cc1nc(F)ccc1Oc1cc(C2CC2)c(C(F)(F)F)c(C)c1C(=O)Nc1ccnc([S@](C)(=N)=O)c1` [Example 39A] showed an IC50 [1] of less than 5 nM and an IC50 [2] of less than 5 nM.
Work on `COc1cc(C#N)ccc1Oc1ncc(-c2ccc(C(F)F)cc2)c(C)c1C(=O)Nc1cccc([S@](C)(=N)=O)c1` [Example 23C, (R)-2-(4-cyano-2-methoxyphenoxy)-5-(4-(difluoromethyl)phenyl)-4-methyl-N-(3-(S-methylsulfonimidoyl)phenyl)nicotinamide] yielded an IC50 [3] of less than 5 nM and an IC50 [4] of less than 5 nM.
With `Cc1nc(F)ccc1Oc1ncc(C(F)(F)F)c(C)c1C(=O)Nc1cccc(S(C)(=N)=N)c1` [Example 40C, ((3-(2-((6-fluoro-2-methylpyridin-3-yl)oxy)-4-methyl-5-(trifluoromethyl)nicotinamido)phenyl)(methyl)-l6-sulfanediylidene)diamine] the IC50 [3] was less than 5 nM and the IC50 [4] was less than 5 nM.
Work on `Cc1nc(F)ccc1Oc1ncc(C(F)(F)F)c(C)c1C(=O)Nc1cccc([S@@](C)(=O)=NC(=O)[C@@H]2C[C@H](O)CN2)c1` [Example 27D, 2-((6-fluoro-2-methylpyridin-3-yl)oxy)-N-(3-((R)—N-((2S,4S)-4-hydroxypyrrolidine-2-carbonyl)-S-methylsulfonimidoyl)phenyl)-4-methyl-5-(trifluoromethyl)nicotinamide] yielded an IC50 [7] of less than 5 nM and an IC50 [8] of less than 5 nM.

From patent publication US20260356804A1, “SODIUM CHANNEL BLOCKING COMPOUNDS, DERIVATIVES THEREOF, AND METHODS OF THEIR USE” (LATIGO BIOTHERAPEUTICS, INC., priority 2022, published 2026)
